{"source": "patent US20230414568A1", "about": "“PHARMACEUTICAL COMBINATION FOR MOOD DISORDERS” (INSTITUTO NACIONAL DE PSIQUIATRÍA \"RAMÓN DE LA FUENTE MUÑIZ\", priority 2018, published 2023)", "key": {"[1]": {"test_system": "Swiss Webster mice", "experiment": "Forced swim test (FST) in mice", "format": "in vivo", "details": "for antidepressant-type effect, reduction of immobility time: acute single I.P. administration, ketamine 1.5 mg/kg, melatonin 4 and 16 mg/kg, alone or combined, vs control group", "description": "(§1) Male mice of the “Swiss Webster” strain between 25 and 35 grams were used. All mice were placed in polyethylene boxes (8 mice per box) at a controlled temperature between 21-22° C., in a room with the dark light cycle reversed (12:12 hours, with artificial light from 10 PM to 10 A.M). The behavior evaluations of the mice were carried out between 10 AM and 3 PM. These mice were fed Purina® for rodents and water ad libitum.\nA single intraperitoneal administration (I.P.) was performed in a volume of […] of body weight, as the following treatment scheme: […]\nThe forced swim test consists of two sessions. In the first session (pre-test), the animals are placed in a glass cylinder with the following dimensions: 20 cm in diameter by 30 cm in height. The glass cylinder is filled with water to a height of 15 cm, at 23-25° C. temperature. The mice are kept in the cylinder for 15 minutes and are naturally forced to swim. The second session takes place 24 hours after the first session and 30 minutes after administering the different pharmacological treatments. The mice are placed in the glass cylinder for 5 minutes and videotaped for further analysis. The immobility of mice in FST is defined as depressive-type behavior and is manifested by a minimal amount of movements made by the animal to stay afloat. The antidepressant effect of a drug is reflected in this test as a decrease in immobility time and an increase in swimming compared to control animals (administered with the vehicle)."}, "[2]": {"test_system": "Swiss Webster mice", "experiment": "Open field test (OFT) in mice", "format": "in vivo", "description": "as §1\nIn order to discard nonspecific actions of any of the treatments on locomotor activity, all the treatments studied in the TST and in the FST were analyzed in the OFT. Motor activity was measured in an apparatus formed by an opaque plexiglass box (40×30×20 cm), divided into 12 equal squares ([…]). The animal was placed in a corner of the cage and its behavior was videotaped for a period of 5 minutes. An observer, who was blinded to drug treatments, recorded the total number of times the animal crossed a square during the test. A count was considered when the animal fully crossed from one plaza to the next. Any change in the number of counts is considered as an alteration in locomotor activity. The test box was carefully cleaned after each session. To avoid changes in the behavior of the animals after the first experiment, the mice were used only once per test type.\nThe following groups of mice were treated under a single administration schedule: with a vehicle (26), a sub-effective dose of ketamine 1.5 mg/Kg (27), 3 mg/Kg (28), 10 mg/Kg (29), 20 mg/Kg (30), 30 mg/Kg (31), plus no effective dose of melatonin and 30 minutes later they were subjected to TST.\nUnder the same single administration scheme; (24, 7 and 0.5 h) before starting the trial, two other independent groups were administered with melatonin 4 mg/kg (33) and 16 mg/kg (34) plus no effective dose of ketamine, with their respective control (32). In other groups, melatonin 4 mg/kg +ketamine 1.5 mg/kg (36) and melatonin 16 mg/kg+ketamine 1.5 mg/kg (37) were administered, with their respective control (35).\nThe following groups of mice were treated under a triple administration scheme: with a vehicle (38), three administrations of melatonin 4 mg/Kg (39), three administrations of melatonin 16 mg/Kg (40), three administrations of ketamine 1.5 mg/Kg (41), three administrations of melatonin 4 mg/Kg+one administration of ketamine 1.5 mg/Kg (42) and three administrations of melatonin 16 mg/Kg+one administration of ketamine 1.5 mg/Kg (43) and 30 minutes later they were subjected to TST.\nEvaluating the effect of melatonin in combination with ketamine on the ambulatory activity of mice in the open field test (OFT) all results are expressed as the mean±SEM of 8-12 animals. Comparisons were made using a one-way ANOVA analysis, followed by the Bonferroni test: * p<0.05, ** p<0.01, *** p<0.001."}, "[3]": {"test_system": "olfactory neuronal precursors", "experiment": "Cell cluster formation of olfactory neuronal precursors", "format": "cell-based, human", "description": "(§2) Cloned neuronal precursors obtained by exfoliation of the nasal cavity of a healthy subject without neuropsychiatric disease at the time of sample collection were used. These were grown according to the following process: • a) Solution 1 containing the culture medium characterized by containing one or more amino acids, one or more mineral salts, one or more vitamins, one or more growth factors of natural origin, and one or more antibiotics; • b) Solution 2 containing one or more pH regulators, and one or more calcium chelating agents, whose function is to moisten the cells that will later be propagated; • c) Solution 3 containing one or more substances that break proteins and that allow the separation between the cells by dispersing them; • d) Solution 4 containing one or more substances that allow the cells to be fixed to a glass support; • e) Solution 5 of cryopreservation containing one or more cryoprotective agents of neuronal origin cells; • f) Solution 6 of differentiation containing the maintenance solution without natural origin growth factors, and a cyclic nucleotide compound that induces differentiation; • g) Solution 7 containing one or more identifiers of specific protein molecules of the neuronal structure such that they allow to distinguish the neuronal cells from patients with neuropsychiatric diseases from healthy subjects; and • h) Solution 8 containing one or more fluorescent and/or enzymatic markers to recognize the identifiers of solution 7; up to passage 5 at a temperature of 37° C. in a 5% CO^2 atmosphere. Cells in passage 5 were incubated with increasing concentrations of ketamine or melatonin or the combination of both according to the following administration schedules:\n(§3) • i. Incubation of the neuronal precursors with a vehicle (0) and ketamine for 12 hours (1), 24 hours (2), 48 hours (3) and 72 hours (4). • ii. Incubation of neuronal precursors with 10^−7 molar ketamine for 48 hours followed by incubation for 6 hours with 10^−7 molar ketamine and melatonin concentrations ranging from 10^−11 molar (7), from 10^−9 molar (8), 10^−7 molar (9) and 10^−5 molar (10), this evaluation was incorporated in a treatment with vehicle (0), with 10^−7 molar melatonin (5) and 10^−7 molar ketamine (6). Said treatment is outlined in FIG. 1. • iii. […]"}, "[4]": {"test_system": "Swiss Webster mice", "experiment": "Tail suspension test (TST) in mice", "format": "in vivo", "details": "N 8"}, "[5]": {"test_system": "olfactory neuronal precursors", "experiment": "Formation of spines in cloned olfactory neuronal precursors", "format": "cell-based, human", "details": "ketamine 10^−7 M", "description": "as §2, §3\nOnce the cells were fixed, they were processed to stain them with specific markers that recognize the spines, which are made up of spinophilin and filamentous actin (FIG. 2A and 2B). […] The spines were counted in 10 fields chosen at random and normalized between the total cells number present in each field (Table 1). […]"}, "[6]": {"details": "single administration, ketamine 1.5 mg/kg (group 27)"}, "[7]": {"details": "single administration, ketamine 3 mg/kg (group 28)"}, "[8]": {"details": "single administration, ketamine 10 mg/kg (group 29)"}, "[9]": {"details": "single administration, ketamine 20 mg/kg (group 30)"}, "[10]": {"details": "single administration, ketamine 30 mg/kg (group 31)"}, "[11]": {"details": "triple administration, ketamine 1.5 mg/kg (group 41)"}, "[12]": {"details": "single administration, melatonin 4 mg/kg (group 33)"}, "[13]": {"details": "single administration, melatonin 16 mg/kg (group 34)"}, "[14]": {"details": "triple administration, melatonin 4 mg/kg (group 39)"}, "[15]": {"details": "triple administration, melatonin 16 mg/kg (group 40)"}}, "note": "Marks after values point to notes of the source that are not given here."}
{"smiles": "CNCCC(Oc1ccc(C(F)(F)F)cc1)c1ccccc1", "note": "(centres unmarked) [Fluoxetine, fluoxetine]", "values": [{"measurement": "Immobility time", "setting": "[1]; fluoxetine 5 mg/kg I.P. (group 19)", "result": "49.76 ± 4.65", "unit": "s"}, {"measurement": "Immobility time", "setting": "[1]; fluoxetine 10 mg/kg I.P. (group 20)", "result": "35.25 ± 3.88", "unit": "s"}]}
{"smiles": "CNC1(c2ccccc2Cl)CCCCC1=O", "note": "(centres unmarked) [Ketamine, 2-(2-chlorophenyl)-2-(methylamino) cyclohexanone]", "values": [{"measurement": "ambulatory activity in OFT", "setting": "[2]; highest doses of ketamine (10 30 mg/kg), did not reach statistical significance, F(3,31)=2.99, p=0.047", "result": "modified ambulatory activity"}, {"measurement": "ambulatory activity in OFT", "setting": "[2]; ketamine 1.5, 3.0, 10.0 and 20.0 mg/kg, F(2,23)=0.545, p=0.589", "result": "did not produce changes in the ambulatory activity"}, {"measurement": "Count number/5 min", "setting": "[2]; [6]", "result": "40.12 ± 3.23"}, {"measurement": "Stop number/5 min", "setting": "[2]; [6]", "result": "28.62 ± 3.15"}, {"measurement": "Count number/5 min", "setting": "[2]; [7]", "result": "45.25 ± 4.29"}, {"measurement": "Stop number/5 min", "setting": "[2]; [7]", "result": "28.25 ± 2.66"}, {"measurement": "Count number/5 min", "setting": "[2]; [8]", "result": "56.62 ± 4.36**"}, {"measurement": "Stop number/5 min", "setting": "[2]; [8]", "result": "45.25 ± 2.85**"}, {"measurement": "Count number/5 min", "setting": "[2]; [9]", "result": "56.00 ± 3.62**"}, {"measurement": "Stop number/5 min", "setting": "[2]; [9]", "result": "45.50 ± 3.70"}, {"measurement": "Count number/5 min", "setting": "[2]; [10]", "result": "60.12 ± 1.60***"}, {"measurement": "Stop number/5 min", "setting": "[2]; [10]", "result": "45.37 ± 1.71"}, {"measurement": "Count number/5 min", "setting": "[2]; [11]", "result": "41.400 ± 3.97"}, {"measurement": "Stop number/5 min", "setting": "[2]; [11]", "result": "28.000 ± 2.53"}, {"measurement": "cell cluster", "setting": "[3]; ketamine 10^−7 M pre-treatment 48 h, then vehicle (group 6)", "result": "7.12 ± 0.92", "unit": "%"}, {"measurement": "cell cluster", "setting": "[3]; two vehicle administrations + one administration of ketamine 10^−7 M (group 13)", "result": "3.1 ± 1.0", "unit": "%"}, {"measurement": "Count Number/5 min ± mean standard error", "setting": "[4]; ketamine 1.5 mg/kg", "result": "40.12 ± 3.23"}, {"measurement": "Count Number/5 min ± mean standard error", "setting": "[4]; ketamine 3 mg/kg", "result": "45.25 ± 4.29"}, {"measurement": "Count Number/5 min ± mean standard error", "setting": "[4]; ketamine 10 mg/kg", "result": "56.34 ± 4.36"}, {"measurement": "antidepressant-type effect, reduction of immobility time", "setting": "[1]", "result": "ineffective"}, {"measurement": "Spines", "setting": "[5]; incubation 12 h (group 1)", "result": "10.25 ± 1.89", "unit": "%"}, {"measurement": "Spines", "setting": "[5]; incubation 24 h (group 2)", "result": "22.65 ± 2.16", "unit": "%"}, {"measurement": "Spines", "setting": "[5]; incubation 48 h (group 3)", "result": "45.31 ± 4.26", "unit": "%"}, {"measurement": "Spines", "setting": "[5]; incubation 72 h (group 4)", "result": "45.31 ± 3.88", "unit": "%"}]}
{"smiles": "COc1ccc2[nH]cc(CCNC(C)=O)c2c1", "note": "[Melatonin, N-[2-(5-methoxy-1H-indol-3-yl)ethyl] acetamide]", "values": [{"measurement": "Count number/5 min", "setting": "[2]; [12]", "result": "41.12 ± 2.48"}, {"measurement": "Stop number/5 min", "setting": "[2]; [12]", "result": "25.37 ± 2.18"}, {"measurement": "Count number/5 min", "setting": "[2]; [13]", "result": "38.50 ± 3.74"}, {"measurement": "Stop number/5 min", "setting": "[2]; [13]", "result": "25.12 ± 2.36"}, {"measurement": "Count number/5 min", "setting": "[2]; [14]", "result": "47.200 ± 5.20"}, {"measurement": "Stop number/5 min", "setting": "[2]; [14]", "result": "29.111 ± 2.16"}, {"measurement": "Count number/5 min", "setting": "[2]; [15]", "result": "42.625 ± 5.97"}, {"measurement": "Stop number/5 min", "setting": "[2]; [15]", "result": "26.375 ± 4.60"}, {"measurement": "cell cluster", "setting": "[3]; triple administration: three administrations of melatonin 10^−7 M (group 12)", "result": "2.9 ± 0.9", "unit": "%"}, {"measurement": "cell cluster", "setting": "[3]; vehicle pre-treatment, then melatonin 10^−7 M (group 5)", "result": "7.61 ± 0.59", "unit": "%"}, {"measurement": "Count Number/5 min ± mean standard error", "setting": "[4]; melatonin 4 mg/kg", "result": "41.125 ± 2.489"}, {"measurement": "Count Number/5 min ± mean standard error", "setting": "[4]; melatonin 16 mg/kg", "result": "38.500 ± 3.746"}, {"measurement": "antidepressant-type effect, reduction of immobility time", "setting": "[1]", "result": "ineffective"}, {"measurement": "Immobility time", "setting": "[1]; melatonin 4 mg/kg I.P. (group 21)", "result": "41.21 ± 7.29", "unit": "s"}, {"measurement": "Immobility time", "setting": "[1]; melatonin 16 mg/kg I.P. (group 22)", "result": "17.38 ± 2.51", "unit": "s"}]}
